Laboratory results from US20230124720A1, “APPLICATION OF ACRIDINEDIONE COMPOUND IN PREPARATION OF ANTI-DIABETIC DRUGS” (THE FOURTH MILITARY MEDICAL UNIVERSITY, priority 2020, published 2023).

Tests used:
MIN6 cells [1] = assay: Western Blot / immunofluorescence of insulin signaling related molecules in insulin-resistant MIN6 cells; type: cell-based, mouse
Method: MIN6 cells were seeded in culture dishes at the appropriate density and cultured as described in step 2.1 to a confluency of about 80%. Cells were divided into the following 5 groups: (1) normal control group (Con): cultured with blank 1640 medium; (2) insulin resistance model panel (IR): treatment with 0.125 mmol/L PA for 24 h to induce establishment of a MIN6 cell insulin resistance model; (3) 3 μmol/L ADD-16 administration group (ADD I): 3 μmol/L ADD-16 intervention was given for 24 h after successful establishment of the insulin resistance model; (4) 10 μmol/L ADD-16 administration group (ADD II): 10 μmol/L ADD-16 intervention was given for 24 h after successful establishment of the insulin resistance model; (5) TAK875 control group (TAK875): 10 μmol/L TAK875 was administered as a positive control drug intervention for 24 h after successful establishment of the insulin resistance model. At the end of the group administration, groups of cells were harvested for WB or IF experiments.

MIN6 cells [2] = assay: Insulin secretion in PA-induced insulin-resistant MIN6 cells; type: cell-based, mouse
Method: MIN6 cells were seeded in 24-well plates and cultured as described in step 2.1 to a cell confluency of more than 80% and administrated in the following groups, with 12 replicates per group: (1) normal control group (Con): cultured with blank 1640 medium; (2) insulin resistance model panel (IR): treated with 0.125 mmol/L PA for 24 h to induce establishment of an insulin resistance model; (3) ADD-16 administration group (ADD): 10 μmol/L ADD-16 intervention was administered for 24 h after successful establishment of the insulin resistance model; (4) TAK875 control group (TAK875): 10 μmol/L TAK875 was administered as a positive control drug intervention for 24 h after successful establishment of the insulin resistance model; (5) metformin control group (MT): 10 mmol/L metformin was administered as a positive control drug intervention for 24 h after successful establishment of the insulin resistance model; (6) sitagliptin control group (ST): 10 μmol/L sitagliptin was administered as a positive control drug intervention for 24 h after successful establishment of the insulin resistance model. After the group administration, the medium was aspirated and washed 2 times with a KRB buffer without sugar, followed by the addition of the KRB buffer without sugar. […] After incubation at 37° C. for 1 h, all the medium in the wells was aspirated and centrifuged at 2000 rmp/min for 20 min, and the supernatant was collected and stored at −20° C. The insulin content was measured for each group.

STZ-induced T2DM rats = assay: Serum insulin and HOMA-IR in T2DM rats; type: in vivo, rat
Method: 150 male SD rats, housed in cages in a clean constant temperature (23±2° C.) and humidity (55±10%) animal house, were manually adjusted on a daily 12 h/12 h diurnal light cycle with free access to water. After 3 days of adaptive feeding, 150 rats were randomly divided into normal and model groups. The normal (Con, n=15) group of rats remained on raw chow and the model group (n=135) of rats were given high fat high sugar chow. All rats were fed twice daily and the amount of feed was adjusted as needed to ensure adequate feed. After 8 weeks of group feeding, the model group rats were given an intraperitoneal injection of 25 mg/kg STZ solution with a 12 h fast prior to injection. […] At the same time, the Con group was daily administrated with a 0.5% CMC-Na solution by gavage, the body weight and postprandial blood sugar (PBG) of each group of rats were monitored weekly. Relevant indicators of lipid metabolism were measured after the end of the study.
In T2DM rat serum insulin assay, fasting serum insulin levels in rats were measured by a commercial insulin ELISA kit. The extent of body insulin resistance was assessed using the Insulin Resistance Index, which was calculated using the Homeostasis model assessment (HOMA-IR) according to literature reports, i.e., HOMA-IR=(fasting glucose×fasting insulin)/22.5.

## CC1(C)CC(=O)C2=C(C1)NC1=C(C(=O)CC(C)(C)C1)C2c1ccc(OCc2ccc(C(=O)O)cc2)c(Br)c1 [ADD-16]
MIN6 cells [1]; MIN6 cells
  GPR40 expression, immunofluorescence staining (in words): upregulate GPR40 expression
MIN6 cells [1]; insulin-resistant MIN6 cells, 24 h, P<0.001
  expression of insulin signaling-related molecules, Western Blot (in words): upregulate GPR40, PGC-1α, P-P38, P-EP300, PPARγ, P-AKT, PI3K, IRS1 and GLUT4 expression
MIN6 cells [2]; PA-induced IR model, 10 μmol/L, 24 h, 2.8 and 16.7 mmol/L glucose, P<0.001
  insulin secretion level in insulin-resistant MIN6 cells (in words): even higher than in Con group
MIN6 cells [2]; same administration concentrations (10 μmol/L)
  insulinotropic effect compared with TAK875 in insulin-resistant MIN6 cells (in words): slightly better than TAK875
STZ-induced T2DM rats
  HOMA-IR (in words): significantly reduced HOMA-IR values
STZ-induced T2DM rats; fasting serum
  serum insulin level (in words): reduce compensatorily elevated insulin levels
